Experimental data reported in article PMC8473641, “Dual blocking of PI3K and mTOR signaling by DHW‐221, a novel benzimidazole derivative, exerts antitumor activity in human non‐small cell lung cancer” (Clinical and Translational Medicine, 2021).
Where two headings read alike, the source gives them in different places. Blank lines part the entries; values can stand above or below the molecule they belong to.

Legend:
mTOR kinase = mTOR kinase (Homo sapiens, UniProt P42345); experiment: mTOR kinase assay in vitro; format: biochemical
HCC827 = experiment: SRB assay HCC827; format: cell-based; conditions: Homo sapiens, mean±SD
Method: (§1) To investigate the effect of DHW‐221 in vitro, SRB assay was performed. […] Additionally, the long‐term efficacy of DHW‐221 was evaluated and confirmed a better antiproliferation role than NVP‐BEZ235 (Figure 2C–E). Figure 2F investigates the concentration‐dependently inhibition of DHW‐221 on protein synthesis in cells. HCC827 xenograft models in both subcutaneous and orthotopic were used to further evaluate its antitumor potency in vivo. […] Moreover, DHW‐221 treatment could ameliorate the burden of orthotopic carcinoma to nude mice (Figure 2O, P).
(§2) FIGURE 2 DHW‐221 inhibits the viability of NSCLC cells both in vitro and in vivo. (A) The structure of compound DHW‐221. (B) The viability of HCC827, NCI‐H292, NCI‐H1993, and A549 cells treated with various concentrations of DHW‐221 at 24, 48, and 72 h was determined by sulforhodamine B (SRB) assay. (C–E) The growth‐inhibitory effect of DHW‐221 on HCC827 and NCI‐H1993 cells was measured using a colony formation assay (C), a lactate dehydrogenase (LDH) assay (D), and a tumor sphere formation assay (E). […] (F) OPP‐labeled protein content was detected by luciferase plate. (G) Tumor‐burdened nude mice and resected tumor samples from subcutaneous xenografts after 21 days (n = 6). (H) Subcutaneous tumor volume was measured daily with a caliper. (I) Mean tumor weight was measured to subcutaneous xenografts at the end of the experiment. (J) Subcutaneous xenografts nude mice were weighed daily on an electronic scale. (K) The index of each main organ of subcutaneous xenografts nude mice. (L) Liver and kidney function indexes subcutaneous xenografts nude mice were evaluated to predict drug toxicity. (M) Hematoxylin and eosin (H&E) staining of the liver, spleen, and kidney from subcutaneous xenografts nude mice; scale bar = 100 µm. (N) Photographs of NSCLC orthotopic tumor samples, n = 6. (O) Orthotopic xenografts nude mice were weighed daily on an electronic scale. (P) The index of lung organ was measured from orthotopic xenografts nude mice. Mean ± SD; *p < 0.05, **p < 0.01, ***p < 0.001 versus the control (model). […]

NCI-H292 = experiment: SRB assay NCI-H292; format: cell-based; conditions: Homo sapiens, mean±SD
Method: as §1, §2

NCI-H1993 = experiment: SRB assay NCI-H1993; format: cell-based; conditions: Homo sapiens, mean±SD
Method: as §1, §2

A549 = experiment: SRB assay A549; format: cell-based; conditions: Homo sapiens, mean±SD
Method: as §1, §2

Pharmacokinetics in mice = format: in vivo; conditions: mouse, plasma, 10 mg/kg; for MRT inf: read-out: MRTinf_obs
Method: ^a Values are the average of three runs. Vehicle: DMSO:ethanol:saline=3:100:897. ^b Dose:10 mg/kg. T1/2, half-life; Cmax, maximum concentration; Tmax, time of maximum concentration; AUCall, area under the plasma concentration time curve.

[1] = system: normal cell lines (HL7702, HUVEC, and MRC-5); experiment: SRB cytotoxicity toward normal cell lines; format: cell-based; conditions: MRC-5, 72 h
Method: as §1
Figure S3. The effect of DHW-221 on normal cell lines. SRB assay was used to determine the cytotoxicity of DHW-221 toward normal cell lines (HL7702, HUVEC, and MRC-5) at 72 h. Mean ± SD; **p < 0.01, ***p < 0.001 vs. the control. One-way analysis of variance followed by Tukey’s post hoc multiple-comparisons test.

HCC827 xenograft = HCC827 xenograft models (subcutaneous and orthotopic) in nude mice; format: in vivo
Method: as §1, §2

NSCLC cells = experiment: Cell cycle analysis by flow cytometry; format: cell-based, human; conditions: 48 h, concentration-dependently
Description: The PI3K/AKT/mTOR pathway is strongly linked to the regulation of cell cycle progression and apoptosis during cell proliferation.[6], [7] […] Meanwhile, the expression of endogenous cyclins in G0/G1 phase was detected by western blot, confirming that DHW‐221 regulated the cell cycle (Figure 3B). Apoptosis is crucial for anticancer drugs to kill cancer cells.[7] […] Finally, the proapoptotic effects of DHW‐221 were confirmed by western blot analysis of apoptosis‐related protein expression both in vitro and in vivo (Figure 3G–I).
FIGURE 3 DHW‐221 induces cell cycle arrest and cell apoptosis in NSCLC both in vitro and in vivo. (A) DHW‐221 and NVP‐BEZ235 were detected by flow cytometry for 48 h. The raw histogram is shown at the top and the quantification of specific cell cycle stages at the bottom. (B) Western blot analysis of the expression levels of cell cycle‐related proteins in HCC827 and NCI‐H1993 cells after 48 h of treatment with the specified concentrations of DHW‐221 and NVP‐BEZ235. (C) Hoechst 33342 staining results. Apoptotic cells are bright blue; scale bar, 50 µm. […] Green fluorescence indicates decreased mitochondrial membrane potential, red fluorescence indicates normal mitochondrial membrane potential; scale bar, 100 µm. […] (G–I) The expression levels of apoptosis‐related proteins in NSCLC cells (G, H) and tumor tissues (I) were detected by western blot. […]

Notch2 and Notch3 = experiment: Western blot of Notch pathway proteins; format: cell-based, human; conditions: HCC827 and NCI-H1993 cells, 48 h
Method: The PI3K signaling pathway is interrelated with Notch. However, the regulatory relationship between Notch and PI3K/AKT/mTOR pathways is still unclear. Next, we investigated the effects of DHW-221 on Notch and its downstream critical target Hes-1.
Figure S2. DHW-221 blocks the notch pathway. HCC827 and NCI-H1993 cells were treated with DHW-221 or NVP-BEZ235 for 48 h following which western blotting was performed on the cell lysates. Mean ± SD; **p < 0.01, ***p < 0.001 vs. the control. One-way analysis of variance followed by Tukey’s post hoc multiple-comparisons test.

p-mTOR = experiment: Western blot of p-AKT and p-mTOR in PI3K knocked down HCC827 cells; format: cell-based, human
Description: First, we identified potential targets of DHW‐221. […] For mTOR, DHW‐221 precisely overlapped with it and formed two more hydrogen bonds (Val2240 and Thr2245) than NVP‐BEZ235 (Figure 1A). […] Additionally, we knocked down PI3K in HCC827 cells (Figure 1C) and compared how DHW‐221, NVP‐BEZ235, and wortmannin (a PI3K inhibitor) treatments affected AKT and mTOR protein phosphorylation levels. […] Finally, western blot and immunofluorescence analysis confirmed the effect of DHW‐221 on the expression of PI3K/AKT/mTOR pathway‐related proteins both in vitro and in vivo (Figure 1E–G). […] The effects of DHW‐221 on notch pathway are provided in Result S1.
FIGURE 1 DHW‐221 is a PI3K/mTOR dual‐target inhibitor and inhibits the PI3K/AKT/mTOR signaling pathway. (A) Predicted binding modes for DHW‐221 (blue stick) with PI3Kα (PDB code: 4JPS) and mTOR (PDB code: 4JT6). Hydrogen bonds are shown as green dashed lines. Key residues for DHW‐221 and BEZ235 interaction are highlighted. (B) A cellular thermal shift assay (CETSA) and an isothermal dose–response fingerprinting (ITDRF)cetsa were used to evaluate the thermal stability of DHW‐221 bound to PI3Kα/β or mTOR. (C, D) The expression of PI3K, p‐AKT, and p‐mTOR in transfected NSCLC cells was assessed by western blot. […]

IC50 (mTOR kinase): 0.0039 µM | IC50 (HCC827; 24h, n=3, read-out: IC50 HCC827 24h): 8.33 ± 1.45 µM | IC50 (HCC827; 48h, n=3, read-out: IC50 HCC827 48h): 0.97 ± 0.127 µM | IC50 (HCC827; 72h, n=3, read-out: IC50 HCC827 72h): 0.032 ± 0.018 µM | IC50 (NCI-H292; 24h, n=3, read-out: IC50 NCI-H292 24h): 7.32 ± 2.42 µM | IC50 (NCI-H292; 48h, n=3, read-out: IC50 NCI-H292 48h): 0.253 ± 0.149 µM | IC50 (NCI-H292; 72h, n=3, read-out: IC50 NCI-H292 72h): 0.026 ± 0.003 µM | IC50 (NCI-H1993; 24h, n=3, read-out: IC50 NCI-H1993 24h): 3.23 ± 1.29 µM | IC50 (NCI-H1993; 48h, n=3, read-out: IC50 NCI-H1993 48h): 0.762 ± 0.083 µM | IC50 (NCI-H1993; 72h, n=3, read-out: IC50 NCI-H1993 72h): 0.117 ± 0.054 µM | IC50 (A549; 24h, n=3, read-out: IC50 A549 24h): 7.14 ± 1.24 µM | IC50 (A549; 48h, n=3, read-out: IC50 A549 48h): 0.893 ± 0.288 µM | IC50 (A549; 72h, n=3, read-out: IC50 A549 72h): 0.372 ± 0.086 µM | AUC (Pharmacokinetics in mice; iv): 262 ± 75.7 µg·h/mL | Cmax (Pharmacokinetics in mice; iv): 67.4 ± 8.54 µg/mL | Tmax (Pharmacokinetics in mice; iv): 0.083 h | half-life (Pharmacokinetics in mice; iv): 3.7 ± 0.2 h | MRT inf (Pharmacokinetics in mice; iv): 4.7 ± 0.3 h | bioavailability (Pharmacokinetics in mice; po vs iv, read-out: F (oral bioavailability)): 67.5% | AUC (Pharmacokinetics in mice; po): 176 ± 51.1 µg·h/mL | Cmax (Pharmacokinetics in mice; po): 11.8 ± 3.4 µg/mL | Tmax (Pharmacokinetics in mice; po): 3 ± 1.7 h | half-life (Pharmacokinetics in mice; po): 7.1 ± 0.9 h | MRT inf (Pharmacokinetics in mice; po): 11.4 ± 0.3 h | alanine aminotransferase concentration (HCC827 xenograft; subcutaneous xenograft nude mice, high dose): increased at high dose
Structure (SMILES): COc1ncc(-c2ccc3ncn(-c4ccc(OCCO)cc4)c3c2)cc1NS(=O)(=O)c1ccc(F)cc1F [DHW-221]
effect on normal cells [1]: without affecting the normal cells | tumor growth (HCC827 xenograft; HCC827 subcutaneous and orthotopic xenografts, nude mice): apparently inhibited tumor growth | body weight (HCC827 xenograft; xenograft nude mice): without affecting body weight | cell cycle arrest (NSCLC cells): arrested at G0/G1 phase | expression of Notch2 and Notch3 (Notch2 and Notch3): had no effect | p-mTOR expression compared with wortmannin (p-mTOR): significantly decreased

Structure (SMILES): Cn1c(=O)n(-c2ccc(C(C)(C)C#N)cc2)c2c3cc(-c4cnc5ccccc5c4)ccc3ncc21 [NVP‐BEZ235, reference compound]
p-mTOR expression compared with wortmannin (p-mTOR): significantly decreased
